Here are results for one molecule from the NIST ThermoML archive (doi:10.1021/acs.jced.6b00543).

Numbers after ± are expanded uncertainties.

For series [1] the following is noted: Crystal; DTA.
A short description of series [2]: Molar enthalpy of transition or fusion. As to conditions: Crystal; DSC.

For `C[C@@H]1O[C@@H](O[C@H]2[C@H](Oc3cc(O)c(C(=O)CCc4ccc(O)cc4)c(O)c3)O[C@H](CO)[C@@H](O)[C@@H]2O)[C@H](O)[C@H](O)[C@H]1O` [naringin dihydrochalcone], in series [1], the Normal melting temperature is 159.07 ± 0.53 °C. Moreover, in series [2], the “Molar enthalpy of transition or fusion” value was 7.08 ± 0.454 kcal/mol.
